Laboratory results from publication PMC4721062, “Oxadiazole-2-oxides may have other functional targets, in addition to SjTGR, through which they cause mortality in Schistosoma japonicum” (Parasites & Vectors, 2016).
Where two headings read alike, the source gives them in different places.

What was measured:
[1] = test system: juvenile S. japonicum; assay: microbe, parasite or virus in culture; format: cell-based; conditions: for Killing activity 24hr / Killing activity 48hr / Killing activity 72hr: 10 μM
Method: Infected Oncomelania hupensis, provided by the Department of Snail Biology, Jiangsu Institute of Parasitic Diseases, were incubated at 25–28 °C, under illumination, for 2 h to hatch S. japonicum cercariae. The cercariae were collected from the water surface with clean cover glass and placed into a centrifuge tube using pre cooled RPMI 1640. Centrifugation was performed for 1 min at 1500 rpm, and then the steps above were repeated. After centrifugation, the supernatant solution was removed. The cercariae at the bottom were washed twice and resuspended with RPMI 1640. Approximately 20–30 cercariae (1 mL of the resuspension medium) were added to one well in a 24-well culture plate. They were incubated overnight at 37 °C with 5 % CO2. The survival rates and number of tails shed were observed under an inverted microscope. Cercariae that had shed their tails were used as juvenile S. japonicum.
20–30 juvenile worms were transferred into each well of a 24-well culture plate, containing 2 mL RPMI 1640 medium, 20 mM HEPES, 100 IU/mL penicillin, […] streptomycin and 10 % fetal bovine serum. Then, oxadiazole-2-oxides (2, 5, 10, and 50 μM), diluted with the RPMI 1640 medium, were added to their allocated wells. The worms in the negative control wells were treated with equal volumes of RPMI 1640 or DMSO and worms treated with AS were observed as positive controls. The juvenile worms’ survival rates were observed under an inverted phase contrast microscope (Leica, Wetzlar, Germany) at 24, 48 and 72 h. Parasite death was defined as an unclear internal structure of the juvenile worms, with incomplete tegument and contents overflowing radially, or unclear internal structure with complete tegument, but having no motor activity during 1 min of continuous observation. All assays were repeated three times.
^b Data collected by visual examination of worm movement and shape; % D = The number of worms dead / The total number of worms observed, and worms dead judged by unclear internal structure of juvenile worms with uncompleted tegument, and contents overflowing radially, or unclear internal structure with complete tegument, but having no motor activity during 1 min of continuous observation. The data presented are the average of three independent experiments.

[2] = target: T1, recombinant SjTGR (Schistosoma japonicum, UniProt B5THG7); assay: Inhibition of TrxR activity of recombinant SjTGR (DTNB assay); format: biochemical; conditions: 50 nM SjTGR, 1 mM NADPH, 15 min preincubation, DTNB reduction; for IC50: read-out: IC50 of SjTGR
T1 sequence (B5THG7 1-596): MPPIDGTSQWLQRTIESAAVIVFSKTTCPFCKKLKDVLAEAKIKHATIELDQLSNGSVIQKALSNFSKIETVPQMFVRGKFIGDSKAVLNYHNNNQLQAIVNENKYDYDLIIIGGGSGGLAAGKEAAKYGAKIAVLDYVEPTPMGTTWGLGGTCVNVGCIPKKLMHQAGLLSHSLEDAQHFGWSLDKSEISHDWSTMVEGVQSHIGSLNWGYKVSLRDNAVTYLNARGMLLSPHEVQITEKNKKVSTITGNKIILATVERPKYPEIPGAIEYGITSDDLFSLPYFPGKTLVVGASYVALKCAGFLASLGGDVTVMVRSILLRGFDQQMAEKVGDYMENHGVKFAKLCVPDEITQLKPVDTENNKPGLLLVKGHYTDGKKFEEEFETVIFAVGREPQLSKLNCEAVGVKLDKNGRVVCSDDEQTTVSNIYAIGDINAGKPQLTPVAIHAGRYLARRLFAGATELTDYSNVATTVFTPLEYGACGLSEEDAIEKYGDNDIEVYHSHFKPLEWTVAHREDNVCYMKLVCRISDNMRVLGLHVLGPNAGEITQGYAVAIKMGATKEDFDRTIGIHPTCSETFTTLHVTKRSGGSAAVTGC
Method: The purified recombinant SjTGR proteins were produced according to the method described by Song et al.. The inhibition of TrxR activity by the recombinant SjTGR was performed as reported by Rai et al.. Briefly, 50 nM SjTGR and 1 mM NADPH were incubated with different concentrations of oxadiazole-2-oxides (2, 4, 6, 10, 20 μM) for 15 min at room temperature. Then, potassium phosphate buffer (pH 7.4) containing 10 mM EDTA, 100 μM NADPH, and 3 mM DTNB was added to start the reaction. The increase of absorbance at 412 nm was monitored during the first 2 min. All assays were done in triplicate.
50 nM SjTGR and 1 mM NADPH were incubated with different concentrations of oxadiazole-2-oxides (2, 4, 6, 10, 20 μM) for 15 min at room temperature. Then, potassium phosphate buffer (pH 7.4) containing 10 mM EDTA, 100 μM NADPH, 3 mM DTNB was added to start the reaction. The increase in absorbance at 412 nm was monitored during the first 2 min. All assays were done in triplicate. Results shown are the mean ± SD (n = 3)

[3] = test system: adult S. japonicum; assay: microbe, parasite or virus in culture; format: cell-based; conditions: for killing at 25 µM / killing at 50 µM / killing at 100 µM / mortality at 25 µM: Schistosoma japonicum; for mortality at 25 µM: read-out: Mortality of adult worms
Description: ICR mice (20–22 g), were obtained from the Shanghai Sub-Center of Experimental Animals, Chinese Academy of Sciences. They were maintained at the Department of Experimental Animals, Jiangsu Institute of Parasitic Diseases. To infect each mouse, its abdominal skin was exposed to 50 S. japonica cercariae. All of the mice were executed to collect S. japonica adult worms, through portal vein perfusion, 35 days post-infection. The adult S. japonica collected were washed with RPMI 1640 medium and then kept in RPMI 1640 medium (pH 7.5) with HEPES 20 mM, penicillin (100 IU/mL), streptomycin ([…]) and 10 % fetal bovine serum. Then, two pairs of adult worms were transferred into each well of a 24-well culture plate, with 2 mL of the same medium. The worms were cultured at 37 °C in a humid atmosphere with 5 % CO2.
Adult worms were cultured in a 24-well culture plate for 30–60 min at 37 °C, in a humid atmosphere with 5 % CO2. Then, oxadiazole-2-oxides at different concentrations (10, 25, 50, 100 μM) were added. Equal volumes of RPMI 1640 or DMSO were applied as negative controls, while PZQ was applied as a positive control. The adult worm mobility and parasite survival rates were monitored using an inverted phase contrast microscope, at 24, 48 and 72 h. Parasite death was defined as there being no motor activity during 2 min of continuous observation, and morphological and tegumental alterations. All assays were repeated three times.
^b Data collected by visual examination of worm movement and shape; n.e. […] The data presented are the average of three independent experiments.

[4] = Schistosoma japonicum, 24 h, read-out: Killing activity 24hr
[5] = Schistosoma japonicum, 48 h, read-out: Killing activity 48hr
[6] = Schistosoma japonicum, 72 h, read-out: Killing activity 72hr
[7] = 24 h, read-out: Killing activity 24hr
[8] = 48 h, read-out: Killing activity 48hr
[9] = 72 h, read-out: Killing activity 72hr

N#Cc1c(-c2ccc(OCC(=O)c3ccccc3)cc2)no[n+]1[O-] [Compound 17]
mortality at 50 µM ([1]; Schistosoma japonicum, 24 h, read-out: Mortality of juvenile worms): < 30% | killing at 2 µM ([1]; Schistosoma japonicum, juvenile worms, 2 μM, 24 h, read-out: Killing activity 24hr): 28.1% | killing at 2 µM ([1]; Schistosoma japonicum, juvenile worms, 2 μM, 48 h, read-out: Killing activity 48hr): 37.5% | killing at 2 µM ([1]; Schistosoma japonicum, juvenile worms, 2 μM, 72 h, read-out: Killing activity 72hr): 46.9% | killing at 5 µM ([1]; Schistosoma japonicum, juvenile worms, 5 μM, 24 h, read-out: Killing activity 24hr): 29.2% | killing at 5 µM ([1]; Schistosoma japonicum, juvenile worms, 5 μM, 48 h, read-out: Killing activity 48hr): 41.7% | killing at 5 µM ([1]; Schistosoma japonicum, juvenile worms, 5 μM, 72 h, read-out: Killing activity 72hr): 50% | killing at 50 µM ([1]; Schistosoma japonicum, juvenile worms, 50 μM, 24 h, read-out: Killing activity 24hr): 45.8% | killing at 50 µM ([1]; Schistosoma japonicum, juvenile worms, 50 μM, 48 h, read-out: Killing activity 48hr): 60.4% | killing at 50 µM ([1]; Schistosoma japonicum, juvenile worms, 50 μM, 72 h, read-out: Killing activity 72hr): 72.9% | Killing activity 24hr ([1]; juvenile worms, 24 h): 40.0%D | Killing activity 48hr ([1]; juvenile worms, 48 h): 48.6%D | Killing activity 72hr ([1]; juvenile worms, 72 h): 54.3%D | IC50 of SjTGR [2]: did not inhibit | IC50 [2]: > 20 µM | killing at 25 µM ([3]; adult worms, 25 μM, 72 h, read-out: Killing activity 72hr): 62.5% | killing at 50 µM ([3]; adult worms, 50 μM, 48 h, read-out: Killing activity 48hr): 40% | killing at 50 µM ([3]; adult worms, 50 μM, 72 h, read-out: Killing activity 72hr): 87.5% | killing at 100 µM ([3]; adult worms, 100 μM, 48 h, read-out: Killing activity 48hr): 57.1% | killing at 100 µM ([3]; adult worms, 100 μM, 72 h, read-out: Killing activity 72hr): 85.7% | Killing activity 24hr ([3]; adult worms, 10 μM, 24 h): n.e. | Killing activity 48hr ([3]; adult worms, 10 μM, 48 h): n.e. | Killing activity 72hr ([3]; adult worms, 10 μM, 72 h): 50.0%D | Killing activity 24hr ([3]; adult worms, 25 μM, 24 h): n.e. | Killing activity 48hr ([3]; adult worms, 25 μM, 48 h): n.e. | Killing activity 24hr ([3]; adult worms, 50 μM, 24 h): n.e. | Killing activity 24hr ([3]; adult worms, 100 μM, 24 h): sluggish | Mortality of adult worms ([3]; adult worms, 100 μM, 24 h): did not cause death

CC(C)CCOc1ccc(-c2no[n+]([O-])c2C#N)cc1 [Compound 18]
killing at 2 µM [1, 4]: 24.1% | killing at 5 µM [1, 4]: 33.8% | killing at 50 µM [1, 4]: 52.4% | killing at 2 µM [1, 5]: 29.9% | killing at 5 µM [1, 5]: 40% | killing at 50 µM [1, 5]: 88.1% | killing at 2 µM [1, 6]: 35.6% | killing at 5 µM [1, 6]: 47.5% | killing at 50 µM [1, 6]: 100% | Killing activity 24hr ([1]; juvenile worms, 24 h): 36.6%D | Killing activity 48hr ([1]; juvenile worms, 48 h): 42.7%D | Killing activity 72hr ([1]; juvenile worms, 72 h): 42.7%D | IC50 of SjTGR [2]: did not inhibit SjTGR | IC50 [2]: > 20 µM | killing at 25 µM [3, 7]: 75% | killing at 50 µM [3, 7]: 100% | killing at 100 µM [3, 7]: 100% | mortality at 25 µM ([3]; 24 h): > 75% | killing at 25 µM [3, 8]: 87.5% | killing at 50 µM [3, 8]: 100% | killing at 100 µM [3, 8]: 100% | killing at 25 µM [3, 9]: 100% | killing at 50 µM [3, 9]: 100% | killing at 100 µM [3, 9]: 100% | mortality at 25 µM ([3]; 72 h): 100% | Killing activity 24hr ([3]; adult worms, 10 μM, 24 h): 16.7%D | Killing activity 48hr ([3]; adult worms, 10 μM, 48 h): 16.7%D | Killing activity 72hr ([3]; adult worms, 10 μM, 72 h): 50.0%D
